Source: patent publication US20040248991A1, “Compositions for lessening oxidative stress” (priority 2001, published 2004)

Columns and labels:
urinary 8OH-dG [1] = experiment: Oxidative stress lessening effect on normal rat (urinary 8OH-dG by ELISA); type: in vivo; settings: SD rats, oral soybean oil solution, 100 mg/kg/day for 4 weeks
Procedure: (§1) The effect of lessening oxidative stress in vivo was evaluated with urinary 8-hydroxydeoxyguanosine (8OH-dG) having high effectiveness as an oxidative stress marker. This material results from nucleic acid damage due to oxidative stress, and is discharged into urine without undergoing further metabolism. It is thus thought that the amount of oxidative stress in vivo and the amount of 8OH-dG discharged have a close relationship therebetween. A decrease in amount of the material in urine means a reduction in oxidative stress in vivo and the prevention of damage to nucleic acid.
A soybean oil solution of oxidized coenzyme Q10 or reduced coenzyme Q10 (containing about 2% of oxidized coenzyme Q10) was orally administered to SD rats (6-week old, male) in a dose of 100 mg/kg/day for 4 weeks. 4 weeks after, urine was collected, and the amount of urinary 8OH-dG was determined by an ELISA kit (Japan Institute for the Control of Aging).

urinary 8OH-dG [2] = experiment: Oxidative stress lessening effect on spontaneously diabetic rat (urinary 8OH-dG); type: in vivo; settings: GK rats, 0.1% by weight in feed
Procedure: as §1
The oxidative stress lessening effect of each of reduced and oxidized coenzyme Q10 in vivo was evaluated by using GK rats with spontaneous diabetes which induced spleen tissue denaturation due to oxidative stress in vivo. A feed (CE-2, produced by CLEA JAPAN, INC.) containing 0.1% by weight of reduced coenzyme Q10 (containing about 2% by weight of oxidized coenzyme Q10) or oxidized coenzyme Q10 was freely given to GK rats (5-week old, male, n=4 in each group). In a control group, the feeds not containing coenzyme Q10 was freely given to the rats. 2 weeks and 4 weeks after, urine was collected, and the amount of urinary 8OH-dG was determined by the same method as in Example 1. […] In the oxidized coenzyme Q10 administration group, the amount of urinary 8OH-dG measured 2 weeks after the administration was decreased to 58% of the control group, and the amount of urinary 8OH-dG measured 4 weeks after the administration was deceased to 52% of the control group.
The oxidative stress lessening effect of a typical antioxidant, vitamin E, was evaluated by using GK rats in the same test system as in Example 2. Like coenzyme Q10, vitamin E was mixed with a feed at a ratio of 0.1% by weight, and the resulting foodstuff was freely given to the GK rats. 2 weeks and 4 weeks after the feeding, the amount of urinary 8OH-dG was determined. […] In comparison to the coenzyme Q10 administration group of Example 2, 2 weeks after, the decreasing effect in Reference Example 1 was lower the effects of both the reduced form and the oxidized form in Example 2, and 4 weeks after, the effect was at the same level as that of the oxidized coenzyme Q10 and lower than that of the reduced coenzyme Q10 in Example 2.

urinary 8OH-dG [3] = experiment: Oxidative stress lessening effect on spontaneously diabetic mouse (urinary 8OH-dG); type: in vivo; settings: KK-Ay mice, 4 weeks
Procedure: as §1
The dose dependency of the oxidative stress lessening effect of each of reduced and oxidized coenzyme Q10 was evaluated by the same method as that used for GK rats except that KK-Ay mice with spontaneous diabetes and having a higher blood sugar level than that of GK rats were used. KK-Ay 5-week old male mice were used, and evaluated in groups in each of which n=11. Oxidized coenzyme Q10 or reduced coenzyme Q10 (containing about 2% by weight of oxidized coenzyme Q10) was mixed with a purified feed (produced by CLEA JAPAN, INC.) at each of ratios of 0.02% by weight, 0.1% by weight, and 0.5% by weight, and each mixture was freely given to the KK-Ay mice. In a control group, the purified feed not containing coenzyme Q10 was freely given to rats. 4 weeks after the supply, urine was collected, and the amount of urinary 8OH-dG was determined by the same method as in Example 1. […] In the reduced coenzyme Q10 administration group, with a dose of 0.02% by weight, the lessening effect was low (82% of the control group), while with a dose of 0.1% by weight or more, the lessening effect was significant (dose of 0.1% by weight: 73% of the control group, dose of 0.5% by weight: 56% of the control group). In the oxidized coenzyme Q10 administration group, the dose-dependent lessening effect was observed without showing a significant difference, and with a dose of 0.5% by weight, the amount of urinary 8OH-dG was 78% of that of the control group.

[4] = system: spleen tissues of GK rats; experiment: Tissue protecting effect on spontaneously diabetic rat (histopathological evaluation of spleen tissue denaturation); type: in vivo; settings: oral administration for 7 weeks, spleen histopathology, four examples per group
Procedure: The protective effect of each of oxidized coenzyme Q10 and reduced coenzyme Q10 (containing about 2% by weight of oxidized coenzyme Q10) on denaturation of the spleen tissues of GK rats by using the same test system as in Example 1. As a control, a soybean oil solution not containing coenzyme Q10 was orally administered. After the coenzyme Q10 was administered for 7 weeks, the spleen was extracted from each rat, and the degree of tissue denaturation was histopathologically evaluated.
The tissue protecting effect of vitamin E was evaluated by the same method as in Example 4.

[5] = cited from earlier work
rats = settings: continuous administration, 1200 mg/kg/day for 52 weeks; cited from earlier work
kidney dialysis patients = settings: daily dose of 800 IU; cited from earlier work
[6] = 2 weeks after the administration
[7] = 4 weeks after the administration
[8] = listed as Oxidized coenzyme Q10

Compound	amount of urinary 8OH-dG relative to solvent control group (assumed as 100%) (urinary 8OH-dG [1])	amount of urinary 8OH-dG relative to control group (assumed as 100%) (urinary 8OH-dG [2]; [6])	amount of urinary 8OH-dG relative to control group (assumed as 100%) (urinary 8OH-dG [2]; [7])	amount of urinary 8OH-dG relative to control group (urinary 8OH-dG [3]; 0.5% by weight in feed)	Number of examples with finding: Islet fibrillation 1+ [4]	Number of examples with finding: Islet fibrillation 2+ [4]	Number of examples with finding: Normal [4]	Number of examples with finding: Islet fibrillation 1+ [4, 8]	Number of examples with finding: Islet fibrillation 2+ [4, 8]	antioxidative activity in vitro [5]	toxic effect in chronic toxicity test (rats)	amount of urinary 8OH-dG relative to control group (urinary 8OH-dG [3]; 0.02% by weight in feed)	amount of urinary 8OH-dG relative to control group (urinary 8OH-dG [3]; 0.1% by weight in feed)	Number of examples with finding: Islet fibrillation 1+ ([4]; listed as Reduced coenzyme Q10)	Number of examples with finding: Islet fibrillation 2+ ([4]; listed as Reduced coenzyme Q10)	Number of examples with finding: Islet fibrillation 1+ ([4]; listed as VE)	Number of examples with finding: Islet fibrillation 2+ ([4]; listed as VE)	increase of risk of brain hemorrhage as a side effect (kidney dialysis patients)	patients died from hemorrhagic diseases (kidney dialysis patients)
COC1=C(OC)C(=O)C(C/C=C(\C)CC/C=C(\C)CC/C=C(\C)CC/C=C(\C)CC/C=C(\C)CC/C=C(\C)CC/C=C(\C)CC/C=C(\C)CC/C=C(\C)CCC=C(C)C)=C(C)C1=O [oxidized coenzyme Q10]	about 60%	58%	52%	78%	two	two	0	2	2	exhibits no antioxidative activity									
COC1=C(OC)C(=O)C(C/C=C(\C)CC/C=C(\C)CC/C=C(\C)CC/C=C(\C)CC/C=C(\C)CC/C=C(\C)CC/C=C(\C)CC/C=C(\C)CC/C=C(\C)CCC=C(C)C)=C(C)C1=O [coenzyme Q10]											no toxic effect was observed								
COc1c(O)c(C)c(C/C=C(\C)CC/C=C(\C)CC/C=C(\C)CC/C=C(\C)CC/C=C(\C)CC/C=C(\C)CC/C=C(\C)CC/C=C(\C)CC/C=C(\C)CCC=C(C)C)c(O)c1OC [reduced coenzyme Q10]	about 40%	about 40%	kept at the same level	56%	tree	one	0			exhibits antioxidative activity in vitro		82%	73%	3	1				
vitamin E [reference compound]		about 80%	51%		two	two	0									2	2	63%	two
